From the NIST ThermoML archive (doi:10.1021/je100825b)

Settings: Liquid, Drop weight

CCCCCCC [heptane] + O=C=O
interfacial tension [mN/m]
Settings	323 K	353 K
100 kPa	16.8	13.6
2100 kPa	–	10.6
3100 kPa	10.1	–
4000 kPa	–	7.8
4500 kPa	7.8	–
5500 kPa	5.7	–
5600 kPa	–	6.1
6900 kPa	–	4.7
7900 kPa	1.5	–
8500 kPa	–	2.9
9300 kPa	0.11	–
10300 kPa	–	0.8
11200 kPa	–	0.2

C [methane] + CCCCCCC
298.2 K
Settings	interfacial tension [mN/m]
100 kPa	19.8
2000 kPa	16.5
3000 kPa	15
4000 kPa	13.4
6000 kPa	10.1
8000 kPa	7.9
15000 kPa	2.3

N#N [nitrogen] + CCCCCCC
323.2 K
Settings	interfacial tension [mN/m]
100 kPa	17.6
3400 kPa	16
6900 kPa	13.7
10400 kPa	12
